Activity calls are given as the source filed them. For most assays here, no stated cut-off is given here; in the data, actives have a measured Kd and inactives only a lower limit.
target: T1, Serine/threonine-protein kinase ULK1 (Homo sapiens, UniProt O75385)
T1 sequence (O75385 whole entry): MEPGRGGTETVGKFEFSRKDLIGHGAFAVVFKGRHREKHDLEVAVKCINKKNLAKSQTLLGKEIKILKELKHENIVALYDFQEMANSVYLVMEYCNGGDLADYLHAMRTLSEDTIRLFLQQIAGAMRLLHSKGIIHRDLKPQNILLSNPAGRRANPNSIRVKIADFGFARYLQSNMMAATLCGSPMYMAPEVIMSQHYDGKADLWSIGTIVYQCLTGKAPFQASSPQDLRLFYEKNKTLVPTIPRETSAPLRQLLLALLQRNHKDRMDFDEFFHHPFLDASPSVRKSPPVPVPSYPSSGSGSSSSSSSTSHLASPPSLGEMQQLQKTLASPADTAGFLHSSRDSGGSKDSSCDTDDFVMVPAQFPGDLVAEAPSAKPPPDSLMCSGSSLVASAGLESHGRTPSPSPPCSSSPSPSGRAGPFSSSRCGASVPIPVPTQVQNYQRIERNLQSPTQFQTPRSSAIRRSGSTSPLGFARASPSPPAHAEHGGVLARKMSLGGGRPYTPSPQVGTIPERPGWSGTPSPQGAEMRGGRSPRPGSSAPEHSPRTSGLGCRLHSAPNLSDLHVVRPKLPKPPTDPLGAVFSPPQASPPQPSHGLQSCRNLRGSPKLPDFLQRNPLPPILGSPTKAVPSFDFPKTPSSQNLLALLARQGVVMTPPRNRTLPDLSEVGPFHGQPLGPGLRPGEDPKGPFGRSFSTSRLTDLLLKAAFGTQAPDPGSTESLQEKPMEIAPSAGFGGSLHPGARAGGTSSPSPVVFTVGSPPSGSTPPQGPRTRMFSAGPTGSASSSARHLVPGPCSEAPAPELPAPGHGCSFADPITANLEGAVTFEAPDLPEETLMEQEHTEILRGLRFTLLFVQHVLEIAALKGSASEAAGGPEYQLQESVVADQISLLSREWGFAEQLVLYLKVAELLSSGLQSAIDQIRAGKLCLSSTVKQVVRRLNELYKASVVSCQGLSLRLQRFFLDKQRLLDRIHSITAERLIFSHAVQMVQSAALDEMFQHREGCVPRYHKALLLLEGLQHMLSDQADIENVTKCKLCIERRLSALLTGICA

Row | Structure (SMILES) | Kd
1 | O=C(O)[C@]1(Cc2cccc(Nc3nccs3)n2)CC[C@@H](Oc2cccc(Cl)c2F)CC1 [MK-5108] | > 30 µM (inactive)
2 | C1=C/COCc2cc(ccc2OCCN2CCCC2)Nc2nccc(n2)-c2cccc(c2)COC/1 [PACRITINIB] | > 30 µM (inactive)
3 | Cc1ccc(-n2nc(C(C)(C)C)cc2NC(=O)NCc2cc(F)ccc2Oc2ccc3c(cnn3CCO)c2)cc1 [PEXMETINIB] | > 30 µM (inactive)
4 | C=CC(=O)N1CCC(Oc2cc3c(Nc4ccc(Cl)c(Cl)c4F)ncnc3cc2OC)CC1 [POZIOTINIB] | > 30 µM (inactive)

target: T2, MAP kinase-activated protein kinase 5 (Homo sapiens, UniProt Q8IW41)
T2 sequence (Q8IW41 whole entry): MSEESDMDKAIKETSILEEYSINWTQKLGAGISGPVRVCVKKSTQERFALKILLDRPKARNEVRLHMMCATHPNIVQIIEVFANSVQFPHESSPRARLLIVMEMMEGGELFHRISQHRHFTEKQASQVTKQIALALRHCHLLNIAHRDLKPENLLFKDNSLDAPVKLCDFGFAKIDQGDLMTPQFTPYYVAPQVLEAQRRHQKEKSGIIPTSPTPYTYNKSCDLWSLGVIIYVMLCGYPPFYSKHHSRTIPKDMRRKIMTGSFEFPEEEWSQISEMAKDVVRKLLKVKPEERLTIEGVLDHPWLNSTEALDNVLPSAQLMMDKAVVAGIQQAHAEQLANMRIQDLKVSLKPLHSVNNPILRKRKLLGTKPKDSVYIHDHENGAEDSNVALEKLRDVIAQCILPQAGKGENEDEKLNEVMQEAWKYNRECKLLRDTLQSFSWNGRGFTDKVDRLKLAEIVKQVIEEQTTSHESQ

Row | Structure (SMILES) | Kd
5 | O=C(O)[C@]1(Cc2cccc(Nc3nccs3)n2)CC[C@@H](Oc2cccc(Cl)c2F)CC1 [MK-5108] | > 30 µM (inactive)
6 | C1=C/COCc2cc(ccc2OCCN2CCCC2)Nc2nccc(n2)-c2cccc(c2)COC/1 [PACRITINIB] | > 30 µM (inactive)
7 | Cc1ccc(-n2nc(C(C)(C)C)cc2NC(=O)NCc2cc(F)ccc2Oc2ccc3c(cnn3CCO)c2)cc1 [PEXMETINIB] | > 30 µM (inactive)
8 | C=CC(=O)N1CCC(Oc2cc3c(Nc4ccc(Cl)c(Cl)c4F)ncnc3cc2OC)CC1 [POZIOTINIB] | > 30 µM (inactive)

target: Calcium/calmodulin-dependent protein kinase kinase 2 (Homo sapiens, UniProt Q96RR4)
Sequence (Q96RR4 whole entry): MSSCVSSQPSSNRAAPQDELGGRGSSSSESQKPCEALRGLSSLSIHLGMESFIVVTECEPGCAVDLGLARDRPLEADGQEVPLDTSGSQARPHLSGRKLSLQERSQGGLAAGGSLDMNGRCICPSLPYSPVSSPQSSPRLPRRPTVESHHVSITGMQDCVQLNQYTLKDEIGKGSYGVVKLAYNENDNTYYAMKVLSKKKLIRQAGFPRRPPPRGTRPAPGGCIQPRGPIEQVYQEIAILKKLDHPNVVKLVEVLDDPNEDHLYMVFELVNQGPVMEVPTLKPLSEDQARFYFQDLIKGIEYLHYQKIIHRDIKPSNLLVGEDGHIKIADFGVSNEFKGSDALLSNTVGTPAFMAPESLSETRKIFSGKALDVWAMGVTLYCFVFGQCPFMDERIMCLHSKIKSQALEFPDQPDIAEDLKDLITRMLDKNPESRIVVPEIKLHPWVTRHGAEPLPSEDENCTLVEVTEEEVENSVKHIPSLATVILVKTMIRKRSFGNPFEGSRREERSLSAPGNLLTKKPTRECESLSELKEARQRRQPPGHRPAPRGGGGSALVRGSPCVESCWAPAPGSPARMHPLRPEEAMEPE

Row | Structure (SMILES) | Kd
9 | O=C(O)[C@]1(Cc2cccc(Nc3nccs3)n2)CC[C@@H](Oc2cccc(Cl)c2F)CC1 [MK-5108] | > 30 µM (inactive)
10 | C1=C/COCc2cc(ccc2OCCN2CCCC2)Nc2nccc(n2)-c2cccc(c2)COC/1 [PACRITINIB] | 7.69 µM (active)
11 | Cc1ccc(-n2nc(C(C)(C)C)cc2NC(=O)NCc2cc(F)ccc2Oc2ccc3c(cnn3CCO)c2)cc1 [PEXMETINIB] | > 30 µM (inactive)
12 | C=CC(=O)N1CCC(Oc2cc3c(Nc4ccc(Cl)c(Cl)c4F)ncnc3cc2OC)CC1 [POZIOTINIB] | > 30 µM (inactive)

target: Insulin-like growth factor 1 receptor (Homo sapiens, UniProt P08069)
Sequence (P08069 31-736 limits assumed): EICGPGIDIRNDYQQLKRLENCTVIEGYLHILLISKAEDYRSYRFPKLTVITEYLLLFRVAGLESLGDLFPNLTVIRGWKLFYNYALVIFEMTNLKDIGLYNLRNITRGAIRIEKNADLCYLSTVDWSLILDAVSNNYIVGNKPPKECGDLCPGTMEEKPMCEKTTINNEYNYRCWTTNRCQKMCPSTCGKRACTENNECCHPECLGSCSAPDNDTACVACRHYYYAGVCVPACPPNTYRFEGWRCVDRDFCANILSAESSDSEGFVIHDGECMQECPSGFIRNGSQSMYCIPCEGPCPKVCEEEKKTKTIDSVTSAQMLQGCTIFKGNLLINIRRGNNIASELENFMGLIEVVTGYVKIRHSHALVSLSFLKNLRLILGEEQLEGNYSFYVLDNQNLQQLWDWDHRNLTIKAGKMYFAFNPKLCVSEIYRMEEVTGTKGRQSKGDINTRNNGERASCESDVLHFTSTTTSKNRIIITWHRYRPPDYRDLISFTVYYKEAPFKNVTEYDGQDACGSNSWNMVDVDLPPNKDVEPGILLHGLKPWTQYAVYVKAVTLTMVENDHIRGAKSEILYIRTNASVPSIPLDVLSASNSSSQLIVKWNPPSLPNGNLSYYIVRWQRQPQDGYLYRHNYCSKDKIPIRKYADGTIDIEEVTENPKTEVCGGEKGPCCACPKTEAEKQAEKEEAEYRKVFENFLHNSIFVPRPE
Sequence (P08069 741-1367 limits assumed): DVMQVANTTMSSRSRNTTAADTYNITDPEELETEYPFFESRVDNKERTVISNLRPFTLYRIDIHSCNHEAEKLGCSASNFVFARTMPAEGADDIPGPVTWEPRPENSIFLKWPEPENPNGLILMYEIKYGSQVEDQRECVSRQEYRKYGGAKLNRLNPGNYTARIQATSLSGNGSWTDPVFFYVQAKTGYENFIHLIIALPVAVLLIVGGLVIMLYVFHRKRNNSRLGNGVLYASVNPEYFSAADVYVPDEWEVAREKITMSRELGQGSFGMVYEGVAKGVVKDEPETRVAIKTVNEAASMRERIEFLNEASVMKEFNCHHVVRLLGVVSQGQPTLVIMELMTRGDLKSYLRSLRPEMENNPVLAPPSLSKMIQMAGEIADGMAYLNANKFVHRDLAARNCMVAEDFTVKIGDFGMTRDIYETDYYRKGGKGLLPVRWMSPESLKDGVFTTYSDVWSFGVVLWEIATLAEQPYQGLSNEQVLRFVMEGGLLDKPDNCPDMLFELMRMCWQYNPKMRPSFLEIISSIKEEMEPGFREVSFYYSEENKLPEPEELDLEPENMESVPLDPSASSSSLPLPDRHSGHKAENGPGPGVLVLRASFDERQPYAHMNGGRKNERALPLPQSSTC

Row | Structure (SMILES) | Kd
13 | O=C(O)[C@]1(Cc2cccc(Nc3nccs3)n2)CC[C@@H](Oc2cccc(Cl)c2F)CC1 [MK-5108] | > 30 µM (inactive)
14 | C1=C/COCc2cc(ccc2OCCN2CCCC2)Nc2nccc(n2)-c2cccc(c2)COC/1 [PACRITINIB] | > 30 µM (inactive)
15 | Cc1ccc(-n2nc(C(C)(C)C)cc2NC(=O)NCc2cc(F)ccc2Oc2ccc3c(cnn3CCO)c2)cc1 [PEXMETINIB] | > 30 µM (inactive)
16 | C=CC(=O)N1CCC(Oc2cc3c(Nc4ccc(Cl)c(Cl)c4F)ncnc3cc2OC)CC1 [POZIOTINIB] | > 30 µM (inactive)

target: T3, Phosphorylase b kinase gamma catalytic chain, liver/testis isoform (Homo sapiens, UniProt P15735)
T3 sequence (P15735 whole entry): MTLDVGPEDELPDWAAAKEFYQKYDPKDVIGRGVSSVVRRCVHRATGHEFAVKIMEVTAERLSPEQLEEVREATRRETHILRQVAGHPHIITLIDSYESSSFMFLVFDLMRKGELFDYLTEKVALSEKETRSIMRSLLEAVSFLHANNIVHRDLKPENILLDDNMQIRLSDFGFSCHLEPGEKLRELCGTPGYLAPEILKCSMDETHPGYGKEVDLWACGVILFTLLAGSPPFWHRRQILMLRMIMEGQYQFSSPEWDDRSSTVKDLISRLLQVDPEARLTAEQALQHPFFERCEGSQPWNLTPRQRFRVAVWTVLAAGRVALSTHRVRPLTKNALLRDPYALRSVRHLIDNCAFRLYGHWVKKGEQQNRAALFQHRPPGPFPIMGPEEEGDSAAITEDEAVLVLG

Row | Structure (SMILES) | Kd
17 | O=C(O)[C@]1(Cc2cccc(Nc3nccs3)n2)CC[C@@H](Oc2cccc(Cl)c2F)CC1 [MK-5108] | > 30 µM (inactive)
18 | C1=C/COCc2cc(ccc2OCCN2CCCC2)Nc2nccc(n2)-c2cccc(c2)COC/1 [PACRITINIB] | > 30 µM (inactive)
19 | Cc1ccc(-n2nc(C(C)(C)C)cc2NC(=O)NCc2cc(F)ccc2Oc2ccc3c(cnn3CCO)c2)cc1 [PEXMETINIB] | > 30 µM (inactive)
20 | C=CC(=O)N1CCC(Oc2cc3c(Nc4ccc(Cl)c(Cl)c4F)ncnc3cc2OC)CC1 [POZIOTINIB] | > 30 µM (inactive)

target: Focal adhesion kinase 1 (Homo sapiens, UniProt Q05397)
Sequence (Q05397 whole entry): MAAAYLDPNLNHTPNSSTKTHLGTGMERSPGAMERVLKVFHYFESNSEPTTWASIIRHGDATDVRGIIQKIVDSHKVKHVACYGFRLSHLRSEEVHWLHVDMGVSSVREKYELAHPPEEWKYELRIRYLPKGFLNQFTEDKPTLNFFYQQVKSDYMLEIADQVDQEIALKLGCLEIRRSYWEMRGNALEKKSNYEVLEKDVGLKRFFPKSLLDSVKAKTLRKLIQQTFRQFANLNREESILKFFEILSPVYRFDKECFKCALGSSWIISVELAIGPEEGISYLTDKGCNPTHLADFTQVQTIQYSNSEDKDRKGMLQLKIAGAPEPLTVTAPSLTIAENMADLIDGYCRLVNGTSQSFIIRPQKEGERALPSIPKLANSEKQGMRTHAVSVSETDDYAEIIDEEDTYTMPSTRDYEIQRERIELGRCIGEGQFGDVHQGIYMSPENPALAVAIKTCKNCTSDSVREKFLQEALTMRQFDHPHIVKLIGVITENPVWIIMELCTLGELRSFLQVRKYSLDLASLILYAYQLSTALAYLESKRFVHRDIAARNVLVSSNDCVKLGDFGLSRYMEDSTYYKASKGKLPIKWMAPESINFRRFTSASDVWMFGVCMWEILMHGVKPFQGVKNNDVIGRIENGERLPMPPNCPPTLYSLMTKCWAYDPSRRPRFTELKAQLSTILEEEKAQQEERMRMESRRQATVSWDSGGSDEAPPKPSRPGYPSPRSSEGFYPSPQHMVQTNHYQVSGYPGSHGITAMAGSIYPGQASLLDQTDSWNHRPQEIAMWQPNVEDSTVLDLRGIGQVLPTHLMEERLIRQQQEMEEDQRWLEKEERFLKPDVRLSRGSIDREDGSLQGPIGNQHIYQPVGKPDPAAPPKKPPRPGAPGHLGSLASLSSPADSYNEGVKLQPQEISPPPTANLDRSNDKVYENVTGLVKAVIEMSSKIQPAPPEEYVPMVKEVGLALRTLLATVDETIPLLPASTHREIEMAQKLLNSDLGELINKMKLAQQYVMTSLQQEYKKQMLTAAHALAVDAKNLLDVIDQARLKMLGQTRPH

Row | Structure (SMILES) | Kd
21 | O=C(O)[C@]1(Cc2cccc(Nc3nccs3)n2)CC[C@@H](Oc2cccc(Cl)c2F)CC1 [MK-5108] | > 30 µM (inactive)
22 | C1=C/COCc2cc(ccc2OCCN2CCCC2)Nc2nccc(n2)-c2cccc(c2)COC/1 [PACRITINIB] | > 30 µM (inactive)
23 | Cc1ccc(-n2nc(C(C)(C)C)cc2NC(=O)NCc2cc(F)ccc2Oc2ccc3c(cnn3CCO)c2)cc1 [PEXMETINIB] | > 30 µM (inactive)
24 | C=CC(=O)N1CCC(Oc2cc3c(Nc4ccc(Cl)c(Cl)c4F)ncnc3cc2OC)CC1 [POZIOTINIB] | > 30 µM (inactive)

target: T4, Rab-like protein 3 (Homo sapiens, UniProt Q5HYI8)
T4 sequence (Q5HYI8 whole entry): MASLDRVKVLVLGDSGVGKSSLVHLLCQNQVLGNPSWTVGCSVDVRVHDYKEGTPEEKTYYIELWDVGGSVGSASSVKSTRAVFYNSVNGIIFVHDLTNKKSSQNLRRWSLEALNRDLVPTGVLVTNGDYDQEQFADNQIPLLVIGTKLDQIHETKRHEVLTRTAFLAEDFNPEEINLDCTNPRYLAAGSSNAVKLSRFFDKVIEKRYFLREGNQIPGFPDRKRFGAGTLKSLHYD

Row | Structure (SMILES) | Kd
25 | O=C(O)[C@]1(Cc2cccc(Nc3nccs3)n2)CC[C@@H](Oc2cccc(Cl)c2F)CC1 [MK-5108] | > 30 µM (inactive)
26 | C1=C/COCc2cc(ccc2OCCN2CCCC2)Nc2nccc(n2)-c2cccc(c2)COC/1 [PACRITINIB] | > 30 µM (inactive)
27 | Cc1ccc(-n2nc(C(C)(C)C)cc2NC(=O)NCc2cc(F)ccc2Oc2ccc3c(cnn3CCO)c2)cc1 [PEXMETINIB] | > 30 µM (inactive)
28 | C=CC(=O)N1CCC(Oc2cc3c(Nc4ccc(Cl)c(Cl)c4F)ncnc3cc2OC)CC1 [POZIOTINIB] | > 30 µM (inactive)

target: TGF-beta receptor type-2 (Homo sapiens, UniProt P37173)
Sequence (P37173 whole entry): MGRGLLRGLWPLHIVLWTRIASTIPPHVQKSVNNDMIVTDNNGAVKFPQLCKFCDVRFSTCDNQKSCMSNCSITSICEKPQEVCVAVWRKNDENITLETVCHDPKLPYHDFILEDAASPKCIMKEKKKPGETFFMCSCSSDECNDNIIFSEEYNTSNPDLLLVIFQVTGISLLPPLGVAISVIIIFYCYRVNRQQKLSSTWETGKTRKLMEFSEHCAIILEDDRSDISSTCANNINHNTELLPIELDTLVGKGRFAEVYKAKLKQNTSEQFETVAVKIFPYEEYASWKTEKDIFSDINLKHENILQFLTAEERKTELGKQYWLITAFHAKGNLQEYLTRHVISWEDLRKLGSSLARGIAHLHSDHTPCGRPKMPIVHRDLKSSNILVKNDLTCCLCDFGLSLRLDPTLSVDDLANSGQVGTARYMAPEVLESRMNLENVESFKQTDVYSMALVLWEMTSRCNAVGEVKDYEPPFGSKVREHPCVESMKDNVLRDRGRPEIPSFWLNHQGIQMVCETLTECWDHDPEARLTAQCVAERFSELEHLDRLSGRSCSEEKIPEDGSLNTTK

Row | Structure (SMILES) | Kd
29 | O=C(O)[C@]1(Cc2cccc(Nc3nccs3)n2)CC[C@@H](Oc2cccc(Cl)c2F)CC1 [MK-5108] | > 30 µM (inactive)
30 | C1=C/COCc2cc(ccc2OCCN2CCCC2)Nc2nccc(n2)-c2cccc(c2)COC/1 [PACRITINIB] | > 30 µM (inactive)
31 | Cc1ccc(-n2nc(C(C)(C)C)cc2NC(=O)NCc2cc(F)ccc2Oc2ccc3c(cnn3CCO)c2)cc1 [PEXMETINIB] | > 30 µM (inactive)
32 | C=CC(=O)N1CCC(Oc2cc3c(Nc4ccc(Cl)c(Cl)c4F)ncnc3cc2OC)CC1 [POZIOTINIB] | > 30 µM (inactive)

— ChEMBL document CHEMBL3991601, “The target landscape of clinical kinase drugs” (Science, 2017)
